PMC12375970, “Probing the extent of importin‐α targeting of the TAF8 NLS by eliminating its cationic net‐charge” (Protein Science : A Publication of the Protein Society, 2025)
Ends that are not written are not given here.

Columns and labels:
mImpα2 [1] = biological target: T1, mImpα2 (Mus musculus, UniProt P52293); assay: Microscale thermophoresis (MST); assay type: binding; details: for Kd: RED-NHS-labelled mImpα2 60 nM, NLS 250 μM–7.6 nM, 20 mM Tris–HCl, 127 mM NaCl, pH 8.0, 0.5% Tween-20, mean ± SD of three experiments, read-out: KD, 1-binding site fitted model; for Hill Coeff.: Hill equation fit, mean ± SD of three experiments
T1 construct: MImpα2, residues 70–529, was co‐crystallized with each NLS analog; His-tag; made in house; host or cells: Escherichia coli BL21 (DE3)
Protocol: Microscale thermophoresis (MST) experiments were conducted using the Monolith NT.115 (Nanotemper, Germany). The RED‐NHS 2nd generation Nanotemper labeling kit (MO‐L011) was used to label mImpα2 in 20 mM Tris–HCl and 127 mM NaCl at pH 8.0. Ten microliter of RED‐NHS‐reacted mImpα2 at 60 nM was titrated against a serial 1:1 dilution (250 μM–7.6 nM) of 10 μL of NLS containing 0.5% Tween‐20, and the mixture was pipetted into 16 MST capillaries contained in a single cartridge. The samples were processed using default settings and followed the manufacturer's protocol. The binding model fits are detailed in Data S1.
A two-binding site and Hill fitting model were also performed by using the following equation in GraphPad. The experiments were repeated three times and the calculated affinity values were reported as the mean equilibrium KD ± standard deviation.
One binding site equation [11]:
Y= Et+Lt+KD- (Et+Lt+KD)2- 4EtLt2Et
Where Lt is the total ligand concentration; protein concentration is Et; KD is the dissociation constant or binding affinity.
Two binding site equation [11]: […]
Where KD1and KD2are the dissociation constants for binding site 1 and 2.
Where L is known, and cooperativity is explicitly reported as the Hill coefficient (n) […].

mImpα2 [2] = biological target: T1, mImpα2; assay: Apparent NLS–mImpα2 complex stability monitored by CD (thermal denaturation); assay type: binding; details: for T°: CD thermal denaturation of mImpα2 in the presence of the ligand (mImpα2 alone 36.35); for ∆H°u (T°): CD thermal denaturation of mImpα2 with ligand, Van't Hoff method; for ΔG°u (25°C) / ΔG°u (37°C) / ΔΔG°u (25°C) / ΔΔG°u (37°C): CD; for ΔG°u (25°C) / ΔG°u (37°C): mImpα2 with ligand; for ΔΔG°u (25°C) / ΔΔG°u (37°C): relative to mImpα2 alone
Protocol: In the presence of TAF8 NLS, mImpα2 was stabilized, evidenced by the increase in temperature denaturation, shift in stability curves, and the reduction of the unfolded state (Figures S5a–c and 5a). The analogs also stabilized mImpα2, albeit to a lesser extent than TAF8 NLS.
CD measurements were conducted as previously described, including the determination of free energy using the Van't Hoff method (Jean‐Francois et al. [2003]). Fitting details are in Data S1.

Hela cells = assay: Fluorescence microscopy of nuclear localization of EGFP-NLS constructs, Hela; assay type: cell-based; details: Hela cells transfected with pCIneoEGFP constructs (EGFP fusions), 24 h post-transfection
Protocol: The plasmids, cloning, and cell culture transfection methods are described in Data S1. Cells were fixed with 3% paraformaldehyde (Electron Microscopy Sciences, Cat#15710) for 15 min at room temperature; then rinsed thoroughly with PBS. Nuclear staining was performed using 1 μg/mL DAPI (Sigma, Cat#D9542) in PBS. Following staining, cells were rinsed again with PBS and mounted with glass coverslips using Vectashield Antifade Mounting Medium (Vector Laboratories, Cat#H‐1000).
Fluorescence imaging was performed using a Zeiss AxioImager.M2 microscope (RRID:SCR_024706) equipped with a 40× EC Plan‐NeoFluar (1.3 NA; oil) objective, X‐Cite XYLIS LED illumination system, and a Zeiss AxioCam mRm CCD monochrome camera. Image acquisition and initial processing were performed using ZEN Blue software (RRID:SCR_013672), and additional analyses were performed using Fiji (ImageJ; RRID:SCR_002285). For each experimental condition, 15 randomly selected fields of view were imaged. Line overlay fluorescence intensity was quantified using the line profile tool in Fiji. A straight line across the entire cell length was drawn and centered on the nucleus. The “Plot Profile” function was used to extract pixel intensity values along the line. Three cells were analyzed per condition, and the data were presented as mean fluorescence intensity values. […]

[3] = Solubility of the synthesized peptides in water; details: synthesized peptide
importin‐α = details: 1:1 stoichiometry; ref Trowitzsch et al. [2015]; read-out: Dissociation constant (KD) by ITC; cited from earlier work
Description: The general transcription factor TFIID is essential for RNA polymerase II transcription initiation in eukaryotic cells. This megadalton protein complex, composed of several TATA‐binding‐associated factors (TAFs), is assembled into a functional transcription factor in the nucleus (Thomas and Chiang [2006]). […] The Berger group recently elucidated how an essential TFIID subcomplex consisting of TAF2, TAF8, and TAF10 is assembled in the cytoplasm (Trowitzsch et al. [2015]). […] Trowitzsch et al. originally reported K D value for TAF8 NLS of ~10 μM with 1:1 stoichiometry (Trowitzsch et al. [2015]). […] In c ...

Row | Substance | Kd (mImpα2 [1]) [µM] | T° (mImpα2 [2]) [°C] | ∆H°u (T°) (mImpα2 [2]) [kcal/mol] | ΔG°u (25°C) (mImpα2 [2]) [kcal/mol] | ΔG°u (37°C) (mImpα2 [2]) [kcal/mol] | ΔΔG°u (25°C) (mImpα2 [2]) [kcal/mol] | ΔΔG°u (37°C) (mImpα2 [2]) [kcal/mol] | Hill Coeff. (mImpα2 [1]) | Nuclear localization (fluorescence) (Hela cells) | Soluble in H20 [3] | Kd (importin‐α) [µM]
1 | EVKKPKIDE [A1] | 13.8 ± 2.31 |  |  |  |  |  |  |  |  |  | 
2 | PVKKEKIDE [A4] | 16.7 ± 1.96 | 37.15 | 87.9 | 3.2 | 0.1 | 0.7 | 0.3 | 0.64 ± 0.24 | outperformed A3 in promoting nuclear localization |  | 
3 | PVKKEKIEE [A2] | 15.9 ± 3.1 |  |  |  |  |  |  |  |  | Yes | 

Stronger by Kd (mImpα2 [1]), values ahead:

Row | Kd (mImpα2 [1]) [µM] | T° (mImpα2 [2]) [°C] | ∆H°u (T°) (mImpα2 [2]) [kcal/mol] | ΔG°u (25°C) (mImpα2 [2]) [kcal/mol] | ΔG°u (37°C) (mImpα2 [2]) [kcal/mol] | ΔΔG°u (25°C) (mImpα2 [2]) [kcal/mol] | ΔΔG°u (37°C) (mImpα2 [2]) [kcal/mol] | Hill Coeff. (mImpα2 [1]) | Substance | Nuclear localization (fluorescence) (Hela cells) | Soluble in H20 [3] | Kd (importin‐α) [µM]
4 | 10.6 ± 2.14 | 40.55 | 94.9 | 4.3 | 1.1 | 1.8 | 1.3 | 0.71 ± 0.30 | H-PEKKPKIDE-OH [A3] |  |  | 
5 | 1.21 ± 0.313 | 47.45 | 170 | 11.1 | 5.4 | 8.6 | 5.6 | 3.1 ± 0.39 | PVKKPKIRR [TAF8] |  | Yes | ~10
